This experiment has as its target Vascular endothelial growth factor receptor 1 (Homo sapiens, UniProt P17948). Nature of the experiment: AlphaScreen Assay: In AlphaScreen, when the donor and acceptor beads are close in proximity, a series of photochemical events will give rise to a fluorescent signal upon light activation. Here we use biotinylated poly-(Glu, Tyr) 4:1 as the kinase substrate, streptavidin-coated donor beads and anti-phosphortyrosine antibody PY100-coated acceptor beads. Upon phosphorylation, the peptide substrate …. In general terms: Bead proximity is the source of the signal in Alpha formats.
Sequence of Vascular endothelial growth factor receptor 1 (P17948 whole entry): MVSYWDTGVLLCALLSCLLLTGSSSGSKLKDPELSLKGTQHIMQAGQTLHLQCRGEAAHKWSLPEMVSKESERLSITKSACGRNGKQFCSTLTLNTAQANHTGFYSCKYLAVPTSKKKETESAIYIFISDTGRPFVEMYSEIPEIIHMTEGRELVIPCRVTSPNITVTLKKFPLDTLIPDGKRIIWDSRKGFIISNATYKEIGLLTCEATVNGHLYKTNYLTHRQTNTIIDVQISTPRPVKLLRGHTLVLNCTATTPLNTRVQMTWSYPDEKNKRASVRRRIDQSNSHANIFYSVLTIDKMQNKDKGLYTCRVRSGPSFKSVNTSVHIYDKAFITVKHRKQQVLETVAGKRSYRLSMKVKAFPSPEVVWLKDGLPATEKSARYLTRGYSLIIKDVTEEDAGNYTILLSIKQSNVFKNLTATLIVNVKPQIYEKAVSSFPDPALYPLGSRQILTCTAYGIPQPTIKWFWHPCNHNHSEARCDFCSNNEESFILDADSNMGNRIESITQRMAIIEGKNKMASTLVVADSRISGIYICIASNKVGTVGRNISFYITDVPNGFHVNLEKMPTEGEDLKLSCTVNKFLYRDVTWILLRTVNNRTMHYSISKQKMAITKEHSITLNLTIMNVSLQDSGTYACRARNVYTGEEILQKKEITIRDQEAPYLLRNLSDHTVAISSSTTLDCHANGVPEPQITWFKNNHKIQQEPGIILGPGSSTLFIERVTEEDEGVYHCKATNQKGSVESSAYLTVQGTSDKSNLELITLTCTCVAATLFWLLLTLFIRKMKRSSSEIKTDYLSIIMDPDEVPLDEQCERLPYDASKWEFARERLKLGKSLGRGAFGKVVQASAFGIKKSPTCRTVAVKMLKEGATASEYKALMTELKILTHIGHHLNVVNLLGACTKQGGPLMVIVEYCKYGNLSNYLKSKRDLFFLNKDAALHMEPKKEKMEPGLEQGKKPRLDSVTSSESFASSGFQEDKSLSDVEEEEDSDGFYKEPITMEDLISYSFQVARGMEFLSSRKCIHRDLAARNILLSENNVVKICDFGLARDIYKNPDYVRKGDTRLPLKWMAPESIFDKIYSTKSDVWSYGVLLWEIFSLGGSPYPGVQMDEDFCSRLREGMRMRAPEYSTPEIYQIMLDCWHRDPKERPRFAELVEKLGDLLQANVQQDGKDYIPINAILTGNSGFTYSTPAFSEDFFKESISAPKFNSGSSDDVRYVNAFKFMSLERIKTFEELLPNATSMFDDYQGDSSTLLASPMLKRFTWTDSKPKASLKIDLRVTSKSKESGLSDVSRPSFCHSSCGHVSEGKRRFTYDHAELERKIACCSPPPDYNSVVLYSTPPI
With `COc1cc2c(Nc3cc(Cl)c(Br)cc3F)ncnc2cc1OC[C@H]1CN2CCOCC2CO1` (stereo not given in full), the IC50 fell in the range of 0.05 to 1 µM.
`COc1cc2c(Nc3cc(Cl)c(Br)cc3F)ncnc2cc1OC[C@@H]1CN2CCOCC2CO1` (stereo not given in full) came in with an IC50 of 0.05 to 1 µM.
The same measure for `COc1cc2c(Nc3ccc(F)c(Cl)c3F)ncnc2cc1OC[C@H]1CN2CCOCC2CO1` (stereo not given in full): 0.05 to 1 µM; for `COc1cc2c(Nc3cc(Cl)c(Cl)cc3F)ncnc2cc1OC[C@@H]1CN2CCOCC2CO1` (stereo not given in full): 0.05 to 1 µM; for `COc1cc2c(Nc3ccc(Br)c(Cl)c3F)ncnc2cc1OC[C@H]1CN2CCOCC2CO1` (stereo not given in full): 0.05 to 1 µM.
With `COc1cc2c(Nc3cc(Cl)c(Cl)cc3F)ncnc2cc1OC[C@H]1CN2CCOCC2CO1` (stereo not given in full) the figure was 0.05 to 1 µM; with `COc1cc2c(Nc3ccc(Cl)c(Cl)c3F)ncnc2cc1OC[C@H]1CN2CCOCC2CO1` (stereo not given in full), 0.05 to 1 µM.
The same measure for `COc1cc2c(Nc3ccc(F)c(Cl)c3F)ncnc2cc1O[C@H]1CO[C@H]2[C@@H]1OC[C@@H]2OC`: 1 to 20 µM; for `COc1cc2c(Nc3ccc(Cl)c(Cl)c3F)ncnc2cc1OC[C@H]1C[C@@H]2CN(C)C[C@@H]2C1`: 0.05 to 1 µM.
As to `COc1cc2c(Nc3ccc(F)c(Cl)c3F)ncnc2cc1OC[C@@H]1CN2CCOCC2CO1` (stereo not given in full), the IC50 is 0.05 to 1 µM.

What is called IC50 is the point on the concentration scale where inhibition reaches its midpoint. A lower IC50 goes with greater potency in that assay.
